Measured values as given in ChEMBL document CHEMBL1201862, “PubChem BioAssay data set” (2004).
The source made the active and inactive calls.

What was measured:
Albumin = Albumin (Bos taurus, UniProt P02769); assay: Counterscreen for inhibitors of T-cell receptor (TCR)-CD3 interaction: Fluorescence-based biochemical high throughput dose response assay to identify inhibitors of T-cell receptor (TCR)-CD3 interaction using a TAMRA-labeled BSA probe.; assay type: functional
Estrogen receptor beta = Estrogen receptor beta (Homo sapiens, UniProt Q92731);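 note: recombinant ER-beta bound to coactivator SRC1 peptide in presence of estradiol agonist; inhibitors block coactivator peptide binding and lower the FRET signal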
[1] = target: T1, Long-chain-fatty-acid--AMP ligase FadD28 (Mycobacterium tuberculosis, UniProt P9WQ59); assay: Fluorescence polarization aasay to screen for inhibitors that compete for the binding of FadD28 to a bisubstrate Measured in Biochemical System Using Plate Reader - 2147-01_Inhibitor_Dose_CherryPick_Activity.; assay type: functional, Mycobacterium tuberculosis H37Rv
T1 sequence (P9WQ59 whole entry): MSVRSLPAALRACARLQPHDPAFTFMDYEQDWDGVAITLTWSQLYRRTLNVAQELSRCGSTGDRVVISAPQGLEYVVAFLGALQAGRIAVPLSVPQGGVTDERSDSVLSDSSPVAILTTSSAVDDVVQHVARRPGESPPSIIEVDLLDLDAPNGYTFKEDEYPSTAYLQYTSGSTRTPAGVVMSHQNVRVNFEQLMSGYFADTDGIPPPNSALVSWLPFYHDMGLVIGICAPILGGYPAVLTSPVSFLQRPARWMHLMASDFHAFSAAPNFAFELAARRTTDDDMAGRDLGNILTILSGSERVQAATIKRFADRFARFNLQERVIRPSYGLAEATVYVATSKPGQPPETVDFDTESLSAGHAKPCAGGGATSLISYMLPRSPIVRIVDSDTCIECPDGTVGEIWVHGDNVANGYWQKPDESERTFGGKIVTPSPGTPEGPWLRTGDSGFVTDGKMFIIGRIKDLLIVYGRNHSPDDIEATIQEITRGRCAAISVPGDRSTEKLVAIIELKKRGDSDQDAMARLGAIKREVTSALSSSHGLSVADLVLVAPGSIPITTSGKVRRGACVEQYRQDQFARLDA

[2] = target: T2, Histone-lysine N-methyltransferase NSD2 (Homo sapiens, UniProt O96028); assay type: biochemical
T2 sequence (O96028 whole entry): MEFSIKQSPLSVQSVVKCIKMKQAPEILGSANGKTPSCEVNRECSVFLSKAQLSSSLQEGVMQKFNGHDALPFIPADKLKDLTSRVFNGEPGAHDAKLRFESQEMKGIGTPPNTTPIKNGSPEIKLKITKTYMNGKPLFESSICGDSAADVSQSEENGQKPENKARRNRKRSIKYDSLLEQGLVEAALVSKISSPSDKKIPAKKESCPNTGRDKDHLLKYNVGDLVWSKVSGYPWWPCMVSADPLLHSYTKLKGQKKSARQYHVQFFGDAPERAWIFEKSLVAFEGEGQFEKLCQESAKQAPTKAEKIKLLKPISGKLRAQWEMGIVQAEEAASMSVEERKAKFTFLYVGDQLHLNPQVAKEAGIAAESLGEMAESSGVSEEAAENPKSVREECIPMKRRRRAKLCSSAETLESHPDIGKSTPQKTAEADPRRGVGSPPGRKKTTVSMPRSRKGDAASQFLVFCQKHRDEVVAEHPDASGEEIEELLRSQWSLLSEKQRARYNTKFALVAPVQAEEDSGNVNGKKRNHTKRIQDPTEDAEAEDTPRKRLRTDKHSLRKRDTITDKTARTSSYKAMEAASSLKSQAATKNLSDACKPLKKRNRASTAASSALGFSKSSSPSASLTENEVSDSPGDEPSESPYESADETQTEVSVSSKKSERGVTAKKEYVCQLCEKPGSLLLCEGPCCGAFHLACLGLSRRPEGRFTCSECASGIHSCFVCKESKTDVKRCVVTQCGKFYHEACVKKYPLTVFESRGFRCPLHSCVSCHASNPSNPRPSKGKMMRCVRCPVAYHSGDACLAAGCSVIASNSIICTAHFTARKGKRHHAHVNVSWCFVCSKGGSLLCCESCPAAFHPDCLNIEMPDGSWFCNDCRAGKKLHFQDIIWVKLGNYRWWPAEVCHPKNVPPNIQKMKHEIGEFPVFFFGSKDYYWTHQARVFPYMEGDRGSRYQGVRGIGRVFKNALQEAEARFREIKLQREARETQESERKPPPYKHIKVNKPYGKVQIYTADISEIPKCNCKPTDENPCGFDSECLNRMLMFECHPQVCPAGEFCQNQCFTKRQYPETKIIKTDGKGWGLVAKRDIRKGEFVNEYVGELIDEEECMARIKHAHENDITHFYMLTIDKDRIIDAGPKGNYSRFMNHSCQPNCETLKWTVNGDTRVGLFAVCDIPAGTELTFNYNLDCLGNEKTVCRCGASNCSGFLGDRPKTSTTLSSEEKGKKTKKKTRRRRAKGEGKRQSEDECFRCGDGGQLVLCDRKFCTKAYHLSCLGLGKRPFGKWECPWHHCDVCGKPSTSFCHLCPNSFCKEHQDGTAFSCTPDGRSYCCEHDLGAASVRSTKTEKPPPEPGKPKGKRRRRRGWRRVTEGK

[3] = target: T3, High affinity choline transporter 1 (Homo sapiens, UniProt Q9GZV3); assay: CHT inhibitors, dose response, cell-based, 5-point CRC, membrane potential dye (AID 504840); assay type: functional
T3 sequence (Q9GZV3 whole entry): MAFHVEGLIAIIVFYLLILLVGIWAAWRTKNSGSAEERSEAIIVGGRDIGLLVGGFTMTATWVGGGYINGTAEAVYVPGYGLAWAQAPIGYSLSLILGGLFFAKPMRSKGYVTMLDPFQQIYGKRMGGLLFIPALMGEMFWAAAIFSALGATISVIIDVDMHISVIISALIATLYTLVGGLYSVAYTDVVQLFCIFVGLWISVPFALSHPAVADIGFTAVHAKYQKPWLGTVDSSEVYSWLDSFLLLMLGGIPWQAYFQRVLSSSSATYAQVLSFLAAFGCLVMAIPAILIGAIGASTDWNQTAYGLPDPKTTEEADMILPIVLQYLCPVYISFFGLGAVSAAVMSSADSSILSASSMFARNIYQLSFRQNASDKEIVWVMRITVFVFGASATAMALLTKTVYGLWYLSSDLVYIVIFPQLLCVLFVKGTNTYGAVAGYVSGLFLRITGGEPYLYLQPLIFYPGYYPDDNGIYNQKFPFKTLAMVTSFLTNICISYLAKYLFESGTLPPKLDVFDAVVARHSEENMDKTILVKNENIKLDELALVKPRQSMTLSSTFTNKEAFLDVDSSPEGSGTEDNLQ

Genome polyprotein = Genome polyprotein (dengue virus type 2, UniProt P29990); assay: Dengue-2 NS5 methyltransferase inhibitors, primary screen, biochemical, confirmation dose response (AID 588689); assay type: functional
Sequence of Genome polyprotein (P29990 2492-3391 limits assumed): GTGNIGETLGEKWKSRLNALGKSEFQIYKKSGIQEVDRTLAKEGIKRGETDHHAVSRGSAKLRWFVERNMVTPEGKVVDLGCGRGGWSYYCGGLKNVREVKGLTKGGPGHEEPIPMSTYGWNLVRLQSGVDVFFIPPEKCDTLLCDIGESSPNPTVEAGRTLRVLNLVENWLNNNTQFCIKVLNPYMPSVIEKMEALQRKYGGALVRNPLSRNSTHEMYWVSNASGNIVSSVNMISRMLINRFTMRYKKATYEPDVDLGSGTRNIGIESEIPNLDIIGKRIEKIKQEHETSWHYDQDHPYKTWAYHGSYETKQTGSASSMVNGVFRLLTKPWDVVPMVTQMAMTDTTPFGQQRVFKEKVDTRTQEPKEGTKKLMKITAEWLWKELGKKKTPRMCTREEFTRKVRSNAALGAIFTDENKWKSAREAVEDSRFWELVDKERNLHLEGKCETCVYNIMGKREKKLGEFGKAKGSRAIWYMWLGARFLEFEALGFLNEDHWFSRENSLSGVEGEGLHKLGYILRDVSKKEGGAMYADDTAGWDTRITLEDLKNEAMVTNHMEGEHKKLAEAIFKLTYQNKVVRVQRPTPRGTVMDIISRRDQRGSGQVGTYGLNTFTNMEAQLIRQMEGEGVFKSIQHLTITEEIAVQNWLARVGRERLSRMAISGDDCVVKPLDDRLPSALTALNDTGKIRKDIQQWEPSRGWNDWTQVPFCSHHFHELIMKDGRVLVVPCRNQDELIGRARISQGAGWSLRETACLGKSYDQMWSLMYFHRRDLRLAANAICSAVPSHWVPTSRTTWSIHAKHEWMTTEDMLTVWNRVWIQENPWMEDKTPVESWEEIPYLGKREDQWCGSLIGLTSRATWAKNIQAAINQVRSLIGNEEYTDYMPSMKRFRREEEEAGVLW

Sequence of Albumin (P02769 whole entry): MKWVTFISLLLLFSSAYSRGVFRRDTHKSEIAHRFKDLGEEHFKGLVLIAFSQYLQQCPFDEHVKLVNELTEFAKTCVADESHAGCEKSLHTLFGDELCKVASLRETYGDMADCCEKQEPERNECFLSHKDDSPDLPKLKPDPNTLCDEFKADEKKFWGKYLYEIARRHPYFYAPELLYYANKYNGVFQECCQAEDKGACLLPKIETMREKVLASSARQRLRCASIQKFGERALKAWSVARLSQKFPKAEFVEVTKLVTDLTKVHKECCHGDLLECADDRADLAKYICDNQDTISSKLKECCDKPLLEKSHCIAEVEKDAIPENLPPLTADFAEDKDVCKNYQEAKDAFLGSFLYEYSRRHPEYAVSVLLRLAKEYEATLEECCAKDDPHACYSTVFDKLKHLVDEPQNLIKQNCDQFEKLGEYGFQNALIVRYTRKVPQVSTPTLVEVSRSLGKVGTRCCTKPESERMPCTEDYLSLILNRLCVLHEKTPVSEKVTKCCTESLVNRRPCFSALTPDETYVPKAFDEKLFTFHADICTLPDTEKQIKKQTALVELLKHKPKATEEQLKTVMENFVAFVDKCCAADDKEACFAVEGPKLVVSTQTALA
Sequence of Estrogen receptor beta (Q92731 whole entry): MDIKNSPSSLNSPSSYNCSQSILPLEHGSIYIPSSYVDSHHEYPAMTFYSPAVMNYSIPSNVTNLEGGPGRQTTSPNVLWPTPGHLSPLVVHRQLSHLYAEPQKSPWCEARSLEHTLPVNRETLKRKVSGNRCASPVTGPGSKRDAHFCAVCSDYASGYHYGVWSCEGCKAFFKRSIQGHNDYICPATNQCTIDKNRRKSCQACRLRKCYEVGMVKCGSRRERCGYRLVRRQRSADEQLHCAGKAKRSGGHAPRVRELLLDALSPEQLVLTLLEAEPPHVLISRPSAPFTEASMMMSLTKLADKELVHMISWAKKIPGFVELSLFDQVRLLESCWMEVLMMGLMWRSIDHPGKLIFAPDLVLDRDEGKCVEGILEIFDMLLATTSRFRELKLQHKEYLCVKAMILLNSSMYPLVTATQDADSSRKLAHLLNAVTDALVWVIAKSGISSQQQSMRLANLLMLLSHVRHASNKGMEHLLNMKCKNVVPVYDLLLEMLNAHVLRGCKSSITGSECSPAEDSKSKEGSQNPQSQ

C=CCNC(=S)NNC(=O)c1cccn(Cc2cccc(Cl)c2)c1=O
IC50 (Albumin): > 94.1 µM (inactive)

CC(C)CSc1nc2c(c(=O)[nH]c(=O)n2C)n1CC(O)COc1cccc2ccccc12 (centres undefined)
IC50 (Estrogen receptor beta): > 50 µM (not active)

CSc1ncc(Cl)c(C(=O)Nc2nnc(SC/C=C/c3ccccc3)s2)n1
AC50 [1]: > 100 µM (inactive)

CNCCCC1Sc2ccccc2Oc2ccccc21 (centres undefined)
AC50 [2]: 9.84 µM (active)

CCCn1nc(NS(=O)(=O)c2cccc3nonc23)c2cc3cccc(C)c3nc21
IC50 [3]: 3.54 µM (active)
IC50 (Genome polyprotein): 39.8 µM (active)
AC50 [1]: > 100 µM (inactive)

O=C(O)CCc1ccc(-c2ccc(Cl)cc2)n1Cc1ccco1
AC50 [1]: 21.8 µM (active)

CC(=O)c1cccc(NC(=O)NC2CCCCCCC2)c1
AC50 [1]: > 100 µM (inactive)
